Tested on: SARS-CoV-2
Test: microbe, parasite or virus in culture
Conditions: Severe acute respiratory syndrome coronavirus 2, Vero C1008, 48 h

`CC12CCC3c4ccc(OS(=O)(=O)O)cc4CCC3C1CCC2O` (stereo not given) was tested. Which IC50 did it give?
Its IC50 is greater than 20 µM.

What about the IC50 (read-out: pIC50 (converted)) of the same compound?
Its IC50 is greater than 20 µM.

For `C=CCc1ccccc1OC[C@@H](O)CNC(C)C`, which IC50 is on record?
The IC50 was greater than 20 µM.

What about the IC50 (read-out: pIC50 (converted)) of the same compound?
The IC50 was greater than 20 µM.

How did the IC50 turn out when `CC(=O)[C@H]1CC[C@H]2[C@@H]3CC=C4C[C@@H](OS(=O)(=O)O)CC[C@]4(C)[C@H]3CC[C@]12C` was run?
The IC50 was greater than 20 µM.

And the IC50 (read-out: pIC50 (converted))?
Its IC50 is greater than 20 µM.

`O=c1c2ccccc2nc2n1CCCC2` was tested. Which IC50 did it give?
The IC50 was greater than 20 µM.

And the IC50 (read-out: pIC50 (converted))?
Its IC50 is greater than 20 µM.

For `COc1cnc(NS(=O)(=O)c2ccc(N)cc2)nc1`, which IC50 is on record?
The IC50 was greater than 20 µM.

What about the IC50 (read-out: pIC50 (converted)) of the same compound?
Its IC50 is greater than 20 µM.

Which IC50 does the source give for `CCN(CC)C(=O)c1ccc(O)c(OC)c1` here?
The IC50 was greater than 20 µM.

And the IC50 (read-out: pIC50 (converted))?
The IC50 was greater than 20 µM.

Which results are given for `CC(=O)c1ccc(C)cc1N[C@H](C(N)=O)c1c(Cl)cccc1Cl`?
IC50: > 20 µM; IC50 (read-out: pIC50 (converted)): > 20 µM

What does the source list for `COC(=O)[C@@H](N)CCCNC(=N)N[N+](=O)[O-]`?
IC50: > 20 µM; IC50 (read-out: pIC50 (converted)): > 20 µM

With `CN1CCC(OC(c2ccccc2)c2ccccc2)CC1` as the compound, how does the IC50 read?
The IC50 was greater than 20 µM.

And the IC50 (read-out: pIC50 (converted))?
Its IC50 is greater than 20 µM.

How did the IC50 turn out when `CN1CCC[C@@H]1Cc1c[nH]c2ccc(CCS(=O)(=O)c3ccccc3)cc12` was run?
Its IC50 is greater than 20 µM.

What about the IC50 (read-out: pIC50 (converted)) of the same compound?
The IC50 was greater than 20 µM.

`O=C1C(Cl)=C(Cl)C(=O)c2c(O)ccc(O)c21` was tested. Which IC50 did it give?
Its IC50 is greater than 20 µM.

And the IC50 (read-out: pIC50 (converted))?
The IC50 was greater than 20 µM.

What does the source list for `NC(=O)c1[nH]cnc1N`?
IC50: > 20 µM; IC50 (read-out: pIC50 (converted)): > 20 µM

How did the IC50 turn out when `CC(=O)OCC1=C(C(=O)O)N2C(=O)[C@@H](N)[C@H]2SC1` was run?
Its IC50 is greater than 20 µM.

What about the IC50 (read-out: pIC50 (converted)) of the same compound?
The IC50 was greater than 20 µM.

With `CC(C)c1ccc2c(c1)CCC1C(C)(CN)CCCC21C` (stereo not given) as the compound, how does the IC50 read?
The IC50 was greater than 20 µM.

What about the IC50 (read-out: pIC50 (converted)) of the same compound?
Its IC50 is greater than 20 µM.

How did the IC50 turn out when `CC(C)N1CCN(c2ccc(N3CCN(c4ccc(OC[C@@H]5OC[C@@](Cn6cncn6)(c6ccc(F)cc6F)O5)cc4)CC3)cc2)C1=O` was run?
Its IC50 is greater than 20 µM.

And the IC50 (read-out: pIC50 (converted))?
Its IC50 is greater than 20 µM.

Which results are given for `Cc1ccc2c([nH]c(=O)c3c(=O)cc(C(=O)OCCC(C)C)oc32)c1C`?
IC50: > 20 µM; IC50 (read-out: pIC50 (converted)): > 20 µM

With `CNC(=O)[C@@H](NC(=O)[C@H](CC(C)C)[C@H](O)C(=O)NO)C(C)(C)C` as the compound, how does the IC50 read?
Its IC50 is greater than 20 µM.

What about the IC50 (read-out: pIC50 (converted)) of the same compound?
Its IC50 is greater than 20 µM.

`CC(=O)N[C@H](Cc1c[nH]c2ccccc12)C(=O)O` was tested. Which IC50 did it give?
The IC50 was greater than 20 µM.

What about the IC50 (read-out: pIC50 (converted)) of the same compound?
The IC50 was greater than 20 µM.

What does the source list for `COc1ccc(-c2cc(=O)c3c(O)cc(O[C@@H]4O[C@H](CO[C@H]5O[C@H](C)[C@@H](O)[C@H](O)[C@@H]5O)[C@@H](O)[C@H](O)[C@H]4O)cc3o2)cc1O`?
IC50: > 20 µM; IC50 (read-out: pIC50 (converted)): > 20 µM

What does the source list for `c1ccc2c(c1)cc1ccc3cccc4ccc2c1c34`?
IC50: > 20 µM; IC50 (read-out: pIC50 (converted)): > 20 µM

With `NC1CC1c1ccccc1` (stereo not given) as the compound, how does the IC50 read?
Its IC50 is greater than 20 µM.

And the IC50 (read-out: pIC50 (converted))?
The IC50 was greater than 20 µM.

`CC=CC(=O)N(CC)c1ccccc1C` was tested. Which IC50 did it give?
The IC50 was greater than 20 µM.

What about the IC50 (read-out: pIC50 (converted)) of the same compound?
The IC50 was greater than 20 µM.

How did the IC50 turn out when `NC(CSSCC(N)C(=O)O)C(=O)O` (stereo not given) was run?
Its IC50 is greater than 20 µM.

What about the IC50 (read-out: pIC50 (converted)) of the same compound?
The IC50 was greater than 20 µM.

What does the source list for `Nc1ccc(N)cc1`?
IC50: > 20 µM; IC50 (read-out: pIC50 (converted)): > 20 µM

With `O=C(O)CCCCCCC[C@@H](O)[C@@H](O)CCCCCCO` as the compound, how does the IC50 read?
The IC50 was greater than 20 µM.

And the IC50 (read-out: pIC50 (converted))?
The IC50 was greater than 20 µM.

How did the IC50 turn out when `OC[C@H]1O[C@H](O)C[C@@H](O)[C@@H]1O` was run?
Its IC50 is greater than 20 µM.

And the IC50 (read-out: pIC50 (converted))?
Its IC50 is greater than 20 µM.

Which results are given for `O=C(O)CC/C=C\C[C@H]1CO[C@@H](c2ccccc2Cl)O[C@H]1c1ccccc1O`?
IC50: > 20 µM; IC50 (read-out: pIC50 (converted)): > 20 µM

Which results are given for `CN(C)[C@@H]1[C@@H]2C=CC[C@H]1c1ccccc1C2`?
IC50: > 20 µM; IC50 (read-out: pIC50 (converted)): > 20 µM

Which results are given for `COc1ccc(-c2nc3cc(C4=NNC(=O)C[C@H]4C)ccc3[nH]2)cc1`?
IC50: > 20 µM; IC50 (read-out: pIC50 (converted)): > 20 µM

Which IC50 does the source give for `CN(C)C1C(O)=C(C(N)=O)C(=O)C2(O)C(O)=C3C(=O)c4c(O)ccc(Cl)c4C(C)(O)C3CC12` (stereo not given) here?
Its IC50 is greater than 20 µM.

What about the IC50 (read-out: pIC50 (converted)) of the same compound?
Its IC50 is greater than 20 µM.

Which IC50 does the source give for `CCC(=O)Oc1ccc2c(c1)CCC1C2CCC2(C)C(OC(=O)CC)CCC12` (stereo not given) here?
The IC50 was greater than 20 µM.

And the IC50 (read-out: pIC50 (converted))?
The IC50 was greater than 20 µM.

Which results are given for `CCC(C)C1OC2(CCC1C)CC1CC(C/C=C(/C)C(OC3CC(OC)C(OC4CC(OC)C(O)C(C)O4)C(C)O3)C(C)/C=C\C=C3\COC4C(O)C(C)=CC(C(=O)O1)C34O)O2` (stereo not given)?
IC50: > 20 µM; IC50 (read-out: pIC50 (converted)): > 20 µM

Which IC50 does the source give for `CCOc1ccc(NC(=O)C(C)O)cc1` (stereo not given) here?
Its IC50 is greater than 20 µM.

And the IC50 (read-out: pIC50 (converted))?
The IC50 was greater than 20 µM.

Which IC50 does the source give for `O=C(/C=C/c1ccc(O)c(O)c1)OC(Cc1ccc(O)c(O)c1)C(=O)O` (stereo not given) here?
Its IC50 is greater than 20 µM.

And the IC50 (read-out: pIC50 (converted))?
Its IC50 is greater than 20 µM.

For `Cc1ccc(C[N+](C)(C)C)o1`, which IC50 is on record?
Its IC50 is greater than 20 µM.

What about the IC50 (read-out: pIC50 (converted)) of the same compound?
The IC50 was greater than 20 µM.

Reference: ChEMBL document CHEMBL4651402, “Screening of ~5500 FDA-approved drugs and clinical candidates for anti-SARS-CoV-2 activity” (2021)
